IC50 data for 32 compounds are collected here from US9776995B2, “Bicyclic sulfonamide compounds as sodium channel inhibitors” (AMGEN INC., priority 2013, dated 2017).

In the first test the target is Nav 1.7 (Homo sapiens (Human), UniProt Q15858). As to the kind of experiment: Nav 1.7 in vitro PX assay (PatchXpress whole cell voltage clamp).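 Further: holding potential set for 20 to 50% inactivation, sodium current evoked by a 20 ms step to −10 mV, peak current inhibition read after compound exposure, 3–5 cells per concentration.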 The class given is cell-based.
Chain of Nav 1.7 (Q15858 whole entry): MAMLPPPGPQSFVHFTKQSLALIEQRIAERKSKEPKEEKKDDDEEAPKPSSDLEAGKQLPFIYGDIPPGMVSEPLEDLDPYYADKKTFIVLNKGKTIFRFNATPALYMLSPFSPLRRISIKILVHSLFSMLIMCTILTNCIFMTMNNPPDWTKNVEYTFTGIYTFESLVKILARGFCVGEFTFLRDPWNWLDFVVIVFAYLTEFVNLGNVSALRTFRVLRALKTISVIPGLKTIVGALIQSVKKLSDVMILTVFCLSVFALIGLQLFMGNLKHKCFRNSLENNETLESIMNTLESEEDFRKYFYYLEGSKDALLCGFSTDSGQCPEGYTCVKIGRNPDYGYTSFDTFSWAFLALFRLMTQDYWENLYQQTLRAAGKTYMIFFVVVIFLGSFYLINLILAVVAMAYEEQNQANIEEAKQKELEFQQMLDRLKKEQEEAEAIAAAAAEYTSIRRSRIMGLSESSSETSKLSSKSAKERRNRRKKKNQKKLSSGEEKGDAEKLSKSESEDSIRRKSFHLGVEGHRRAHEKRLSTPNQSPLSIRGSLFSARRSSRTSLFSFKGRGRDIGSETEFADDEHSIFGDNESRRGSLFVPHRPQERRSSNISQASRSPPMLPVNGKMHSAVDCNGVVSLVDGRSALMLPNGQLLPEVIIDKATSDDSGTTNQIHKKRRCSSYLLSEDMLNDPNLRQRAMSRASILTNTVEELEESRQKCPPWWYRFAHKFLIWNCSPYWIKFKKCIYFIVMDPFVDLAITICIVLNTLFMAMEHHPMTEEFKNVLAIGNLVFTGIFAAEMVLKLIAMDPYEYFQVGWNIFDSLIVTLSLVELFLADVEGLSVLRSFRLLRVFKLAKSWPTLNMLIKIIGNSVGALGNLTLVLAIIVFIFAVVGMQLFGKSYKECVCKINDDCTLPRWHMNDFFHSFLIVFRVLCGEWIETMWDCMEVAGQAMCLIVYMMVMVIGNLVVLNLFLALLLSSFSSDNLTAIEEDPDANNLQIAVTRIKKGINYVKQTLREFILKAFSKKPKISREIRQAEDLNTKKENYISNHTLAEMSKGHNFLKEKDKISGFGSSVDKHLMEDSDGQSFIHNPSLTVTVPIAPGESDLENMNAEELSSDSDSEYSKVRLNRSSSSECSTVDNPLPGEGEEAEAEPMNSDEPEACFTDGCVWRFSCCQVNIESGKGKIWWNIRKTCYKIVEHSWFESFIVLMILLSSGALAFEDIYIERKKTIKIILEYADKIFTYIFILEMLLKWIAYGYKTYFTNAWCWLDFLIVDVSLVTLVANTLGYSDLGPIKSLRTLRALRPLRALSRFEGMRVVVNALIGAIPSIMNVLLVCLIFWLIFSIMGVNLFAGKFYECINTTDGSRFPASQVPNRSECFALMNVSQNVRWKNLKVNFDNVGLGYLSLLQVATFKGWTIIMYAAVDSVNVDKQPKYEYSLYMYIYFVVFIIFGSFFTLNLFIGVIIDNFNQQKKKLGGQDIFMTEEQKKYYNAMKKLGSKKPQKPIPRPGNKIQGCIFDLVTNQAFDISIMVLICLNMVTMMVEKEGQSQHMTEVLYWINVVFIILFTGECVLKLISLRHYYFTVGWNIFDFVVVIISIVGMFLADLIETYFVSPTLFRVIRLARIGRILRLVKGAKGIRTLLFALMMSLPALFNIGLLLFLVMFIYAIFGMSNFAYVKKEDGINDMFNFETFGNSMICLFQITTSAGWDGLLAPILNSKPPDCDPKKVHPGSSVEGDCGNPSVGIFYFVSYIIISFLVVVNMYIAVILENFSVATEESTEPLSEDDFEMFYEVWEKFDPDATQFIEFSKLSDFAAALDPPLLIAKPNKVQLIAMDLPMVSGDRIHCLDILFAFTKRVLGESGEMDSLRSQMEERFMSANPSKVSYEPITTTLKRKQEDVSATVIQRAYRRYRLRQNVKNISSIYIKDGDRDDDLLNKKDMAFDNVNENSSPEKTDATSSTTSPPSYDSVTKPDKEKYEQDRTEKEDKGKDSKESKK
Details: not given
`COc1cc(-c2cccc(C(F)(F)F)c2)c(C#N)cc1-c1nccc2cc(S(=O)(=O)Nc3ncccn3)ccc12` [Example 373, 1-(2-cyano-5-methoxy-3′-(trifluoromethyl)-[1,1′-biphenyl]-4-yl)-N-(pyrimidin-2-yl)isoquinoline-6-sulfonamide] came in with an IC50 of 57 nM.
Same read-out and setting: in the case of `COc1cc(C(F)(F)F)c(Cl)cc1-c1ncnc2cc(S(=O)(=O)Nc3ccon3)ccc12` [Example 59, 4-(5-CHLORO-2-METHOXY-4-(TRIFLUOROMETHYL)PHENYL)-N-(ISOXAZOL-3-YL)QUINAZOLINE-7-SULFONAMIDE] it was 182 nM.

Staying with this test, now noted: HEK 293 cells stably transfected with human Nav1.7; PatchXpress; partially inactivated state.
In turn, `COc1cc(-c2cccc(F)c2)c(Cl)cc1-c1c(C)ncc2cc(S(=O)(=O)Nc3ccon3)ccc12` (atropisomer, axis not shown; (M)) [Example 317, (M)-4-(2-chloro-3′-fluoro-5-methoxy-4-biphenylyl)-N-3-isoxazolyl-3-methyl-7-isoquinolinesulfonamide] displayed an IC50 of 72 nM.
Compound `COc1cc(-c2ccc(F)c(C3CC3)c2)c(C)cc1-c1ncnc2cc(S(=O)(=O)Nc3ccon3)ccc12` [Example 554, 4-(3′-cyclopropyl-4′-fluoro-5-methoxy-2-methyl-4-biphenylyl)-N-3-isoxazolyl-7-quinazolinesulfonamide] returned an IC50 of 34 nM.
Consider `COc1cc(-c2cc(F)cc(C3CC3)c2)c(C)cc1-c1ncnc2cc(S(=O)(=O)Nc3ccon3)ccc12` [Example 555, 4-(3′-cyclopropyl-5′-fluoro-5-methoxy-2-methyl-4-biphenylyl)-N-3-isoxazolyl-7-quinazolinesulfonamide], for which the IC50 worked out at 61 nM.
Same read-out and setting: in the case of `CCOc1ccc(-c2cc(OC)c(-c3ncnc4cc(S(=O)(=O)Nc5ccon5)ccc34)cc2F)cc1C` [Example 535, 4-(4′-ethoxy-2-fluoro-5-methoxy-3′-methyl-4-biphenylyl)-N-3-isoxazolyl-7-quinazolinesulfonamide] it was 610 nM; in that of `COc1cc(-c2cccc(Cl)c2)c(F)cc1-c1ncnc2cc(S(=O)(=O)Nc3ncon3)ccc12` [Example 376, 4-(3′-chloro-2-fluoro-5-methoxy-[1,1′-biphenyl]-4-yl)-N-(1,2,4-oxadiazol-3-yl)quinazoline-7-sulfonamide], 28 nM.
Consider `COc1cc(-c2ccc(F)cc2F)c(C)cc1-c1ncnc2cc(S(=O)(=O)Nc3ccon3)ccc12` [Example 563, 4-(2′,4′-difluoro-5-methoxy-2-methyl-4-biphenylyl)-N-3-isoxazolyl-7-quinazolinesulfonamide], for which half-maximal inhibition (IC50) required 105 nM.
Same read-out and setting: in the case of `COc1cc(-c2cc(OC)c(-c3ncnc4cc(S(=O)(=O)Nc5ccon5)ccc34)cc2C)ccc1F` [Example 559, 4-(4′-fluoro-3′,5-dimethoxy-2-methyl-4-biphenylyl)-N-3-isoxazolyl-7-quinazolinesulfonamide] it was 57 nM.
Same read-out and setting: the result for `COc1cc(-c2cccc(Cl)c2)c(F)cc1-c1cn(C)c(=O)c2cc(S(=O)(=O)Nc3ccon3)ccc12` [Example 344, 4-(3′-chloro-2-fluoro-5-methoxy-[1,1′-biphenyl]-4-yl)-N-(isoxazol-3-yl)-2-methyl-1-oxo-1,2-dihydroisoquinoline-7-sulfonamide] reads 49 nM; that for `COc1cc(-c2cccc(F)c2)c(Cl)cc1-c1c(C)cnc2cc(S(=O)(=O)Nc3ccon3)ccc12` (atropisomer, axis not shown; (P)) [Example 331, (P)-4-(2-chloro-3′-fluoro-5-methoxy-[1,1′-biphenyl]-4-yl)-N-(isoxazol-3-yl)-3-methylquinoline-7-sulfonamide], 10500 nM.
For `COc1cc(-c2cccc(F)c2)c(Cl)cc1-c1c(OC)nnc2cc(S(=O)(=O)Nc3ccon3)ccc12` [Example 445, 4-(2-CHLORO-3′-FLUORO-5-METHOXY-[1,1′-BIPHENYL]-4-YL)-N-(ISOXAZOL-3-YL)-3-METHOXYCINNOLINE-7-SULFONAMIDE], the IC50 came to 107 nM.
The compound `COc1cc(-c2ccc(Cl)c(C)c2)c(F)cc1-c1c(=O)[nH]cc2cc(S(=O)(=O)Nc3ccon3)ccc12` [Example 549, 4-(4′-chloro-2-fluoro-5-methoxy-3′-methyl-4-biphenylyl)-N-3-isoxazolyl-3-oxo-2,3-dihydro-7-isoquinolinesulfonamide] registered an IC50 of 8 nM.
Same read-out and setting: the result for `COc1cc(-c2ccc(Cl)c(C)c2)c(Cl)cc1-c1nccc2cc(S(=O)(=O)Nc3nncs3)ccc12` [Example 379, 1-(2,4′-dichloro-5-methoxy-3′-methyl-4-biphenylyl)-N-1,3,4-thiadiazol-2-yl-6-isoquinolinesulfonamide] reads 14 nM.
Regarding `COc1cc(Cl)cc(-c2cc(OC)c(-c3ncnc4cc(S(=O)(=O)Nc5ccon5)ccc34)cc2F)c1` [Example 537, 4-(3′-chloro-2-fluoro-5,5′-dimethoxy-4-biphenylyl)-N-3-isoxazolyl-7-quinazolinesulfonamide], inhibition was half-maximal at 36 nM (IC50).

Still in this test, the particulars now being: PatchXpress (PX).
Take `COc1cc(-c2cc(F)cc(F)c2)c(Cl)cc1-c1nncc2cc(S(=O)(=O)Nc3ccsn3)ccc12` [Example 256, 1-(2-chloro-3′,5′-difluoro-5-methoxy-4-biphenylyl)-N-3-isothiazolyl-6-phthalazinesulfonamide]: the midpoint of inhibition, the IC50, lay at 85.2 nM.
On the same count and under the same terms, the result for `COc1cc(-c2ccc(F)c(F)c2)c(C)cc1-c1nccc2cc(S(=O)(=O)Nc3ccon3)ccc12` [Example 62, 1-(3′,4′-DIFLUORO-5-METHOXY-2-METHYL-[1,1′-BIPHENYL]-4-YL)-N-(ISOXAZOL-3-YL)ISOQUINOLINE-6-SULFONAMIDE] reads 37.6 nM.
Still for that read-out and setting: in the case of `COc1cc(-c2cccc(F)c2)c(Cl)cc1-c1nccc2cc(S(=O)(=O)Nc3cscn3)ccc12` [Example 54, 1-(2-CHLORO-3′-FLUORO-5-METHOXY-[1,1′-BIPHENYL]-4-YL)-N-(THIAZOL-4-YL)ISOQUINOLINE-6-SULFONAMIDE] it was 493 nM; in that of `COc1cc(C(F)(F)F)c(Cl)cc1-c1nccc2cc(S(=O)(=O)Nc3ccon3)ccc12` [Example 249, 1-(5-chloro-2-methoxy-4-(trifluoromethyl)phenyl)-N-3-isoxazolyl-6-isoquinolinesulfonamide], 224 nM.
On the same count and under the same terms, the result for `COc1cc(-c2ccc(F)c(Cl)c2)c(C)cc1-c1ncnc2cc(S(=O)(=O)Nc3ccon3)ccc12` [Example 269, 4-(3′-chloro-4′-fluoro-5-methoxy-2-methyl-4-biphenylyl)-N-3-isoxazolyl-7-quinazolinesulfonamide] reads 25.2 nM; that for `COc1cc(-c2ccc(Cl)c(F)c2)c(C)cc1-c1ncnc2cc(S(=O)(=O)Nc3ccon3)ccc12` [Example 271, 4-(4′-chloro-3′-fluoro-5-methoxy-2-methyl-4-biphenylyl)-N-3-isoxazolyl-7-quinazolinesulfonamide], 47.2 nM; that for `COc1cc(-c2cccc(Cl)c2)c(C)cc1-c1ncnc2cc(S(=O)(=O)Nc3ccon3)ccc12` [Example 264, 4-(3′-chloro-5-methoxy-2-methyl-4-biphenylyl)-N-3-isoxazolyl-7-quinazolinesulfonamide], 12.1 nM.
`COc1cc(-c2ccc(C)c(Cl)c2)c(Cl)cc1-c1nncc2cc(S(=O)(=O)Nc3ccon3)ccc12` [Example 246, 1-(2,3′-dichloro-5-methoxy-4′-methyl-4-biphenylyl)-N-3-isoxazolyl-6-phthalazinesulfonamide] had an IC50 of 17.2 nM.
Still for that read-out and setting: in the case of `COc1cc(-c2ccc(Cl)c(C)c2)c(C)cc1-c1ncnc2cc(S(=O)(=O)Nc3ccon3)ccc12` [Example 252, 4-(4′-chloro-5-methoxy-2,3′-dimethyl-4-biphenylyl)-N-3-isoxazolyl-7-quinazolinesulfonamide] it was 32 nM.

Still in this test, the particulars now being: in-vitro Nav 1.7 PX (PatchXpress).
The compound `COc1cc(-c2ccc(OCC(F)(F)F)nc2)ccc1-c1nccc2cc(S(=O)(=O)Nc3ccon3)ccc12` [Example 303, N-3-isoxazolyl-1-(2-methoxy-4-(6-(2,2,2-trifluoroethoxy)-3-pyridinyl)phenyl)-6-isoquinolinesulfonamide] displayed an IC50 of 480 nM.
The same measure, in the same setting: in the case of `COc1cc(F)cc(-c2cc(OC)c(-c3nccc4cc(S(=O)(=O)Nc5ccon5)ccc34)cc2F)c1` [Example 305, 1-(2,3′-difluoro-5,5′-dimethoxy-4-biphenylyl)-N-3-isoxazolyl-6-isoquinolinesulfonamide] it was 40 nM; in that of `COc1cc(-c2cc(C)c(Cl)c(F)c2)c(F)cc1-c1ncnc2cc(S(=O)(=O)Nc3ccon3)ccc12` [Example 295, 4-(4′-chloro-2,3′-difluoro-5-methoxy-5′-methyl-4-biphenylyl)-N-3-isoxazolyl-7-quinazolinesulfonamide], 59 nM; in that of `COc1cc(-c2cc(F)cc(C3CC3)c2)c(C)cc1-c1ncnc2cc(S(=O)(=O)Nc3ccon3)ccc12` [Example 306, 4-(3′-cyclopropyl-5′-fluoro-5-methoxy-2-methyl-4-biphenylyl)-N-3-isoxazolyl-7-quinazolinesulfonamide], 61 nM.
Same read-out and setting: the result for `COc1cc(-c2ccc(Cl)c(C)c2)ccc1-c1nccc2cc(S(=O)(=O)Nc3ccon3)ccc12` [Example 288, 1-(4′-chloro-3-methoxy-3′-methyl-4-biphenylyl)-N-3-isoxazolyl-6-isoquinolinesulfonamide] reads 77.5 nM; that for `COc1cc(-c2ccc(C)c(Cl)c2)c(C)cc1-c1nccc2cc(S(=O)(=O)Nc3ccon3)ccc12` [Example 282, 1-(3′-chloro-5-methoxy-2,4′-dimethyl-4-biphenylyl)-N-3-isoxazolyl-6-isoquinolinesulfonamide], 98.6 nM.
As for `COc1cc(-c2cccc(F)c2)c(C#N)cc1-c1cccc2cc(S(=O)(=O)Nc3ccon3)ccc12` [Example 292, 5-(2-cyano-3′-fluoro-5-methoxy-4-biphenylyl)-N-3-isoxazolyl-2-naphthalenesulfonamide], the IC50 is 256 nM.
Turning to `COc1cc(-c2cc(C)cc(F)c2)c(Cl)cc1-c1ncnc2cc(S(=O)(=O)Nc3ccon3)ccc12` [Example 309, 4-(2-chloro-3′-fluoro-5-methoxy-5′-methyl-4-biphenylyl)-N-3-isoxazolyl-7-quinazolinesulfonamide], the IC50 stood at 40 nM.

A word on the IC50: it is the concentration at which inhibition is half-maximal. A higher IC50 goes with lower potency.
